{
  "source": "patent US10370647B2",
  "about": "(priority 2015, dated 2019)",
  "key": {"KFtx cells": {"system": "KFtx cells", "assay_type": "in vivo, BALB/cAJcl-nu/nu mice", "details": "KFTx cell-derived tumors; 7 days after Paclitaxel 1 mg/ml/mouse"}, "Low cells": {"system": "Low cells", "assay_type": "in vivo, BALB/cAJcl-nu/nu mice", "details": "KF cell-derived tumors (Low group); 7 days after Paclitaxel 1 mg/ml/mouse"}, "KFtx series": {"system": "KFtx series", "assay": "Paclitaxel resistance properties of the KFtx series (surviving cells, Cell Titer-Glo)", "assay_type": "cell-based", "details": "Low and Empty Low (low UCA1 expression); PTx 0 to 500 nM, 48 hours", "protocol": "Paclitaxel resistance properties of the KFtx series comprising the cell line stably expressing UCA1 were compared. The KFtx series were seeded at a cell density of 6×10^3/well on a 96-well plate, and after the cells had been cultured at 37° C. for 12 hours, during which the cells were considered to adhere to the plate, the medium was exchanged with PTx-containing RPMI. The concentrations of PTx were set to be 0, 2, 5, 20, 50, 100, 200, and 500 nM. The cells were further cultured at 37° C. for 48 hours, and the number of surviving cells was then quantified using Cell Titer-Glo (Promega) and was then compared."}},
  "data": [
    {"smiles": "CC(=O)O[C@H]1C(=O)[C@@]2(C)[C@H]([C@H](OC(=O)c3ccccc3)[C@]3(O)C[C@H](OC(=O)[C@H](O)[C@@H](NC(=O)c4ccccc4)c4ccccc4)C(C)=C1C3(C)C)[C@]1(OC(C)=O)CO[C@@H]1C[C@@H]2O", "note": "[PTx, Paclitaxel]", "values": [
      {"measurement": "tumors after administration of PTx (Rluc imaging)", "setting": "KFtx cells", "value": "remained"},
      {"measurement": "tumors disappeared (Rluc imaging)", "setting": "Low cells", "value": "≥ 95", "unit": "%"},
      {"measurement": "number of surviving cells", "setting": "KFtx series", "value": "significantly decreased"}
    ]}
  ]
}
